Measurements from ChEMBL document CHEMBL1201862, “PubChem BioAssay data set” (2004).
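Growth conditions: 96-well plates. Treatment: test compound, 48 hours, 5 concentrations. Analysis: linear interpolation between bracketing concentrations; unreached endpoints set to highest concentration. GI50 = concentration required for 50% inhibition of growth.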 Active and inactive are the calls of the source. No stated cut-off is given here; in the data, active = GI50 up to about 1.1 µM and inactive = higher.

Legend:
Assay in all cases: NCI anticancer screen, dose series, 48 h
MDA-MB-435 = system: MDA-MB-435
UACC-257 = system: UACC-257
OVCAR-5 = system: OVCAR-5
NCI-H23 = system: NCI-H23
CAKI-1 = system: CAKI-1
HL-60 = system: HL-60
MDA-N = system: MDA-N
EKVX = system: EKVX
SNB-75 = system: SNB-75
HOP-92 = system: HOP-92
786-0 = system: 786-0
K562 = system: K562
HCT-116 = system: HCT-116
HOP-62 = system: HOP-62
Malme-3M = system: Malme-3M
T47D = system: T47D
SK-MEL-5 = system: SK-MEL-5
UO-31 = system: UO-31
MOLT-4 = system: MOLT-4
BT-549 = system: BT-549

SMILES | GI50 (MDA-MB-435) | GI50 (UACC-257) | GI50 (OVCAR-5) | GI50 (NCI-H23) | GI50 (CAKI-1) | GI50 (HL-60) | GI50 (MDA-N) | GI50 (EKVX) | GI50 (SNB-75) | GI50 (HOP-92) | GI50 (786-0) | GI50 (K562) | GI50 (HCT-116) | GI50 (HOP-62) | GI50 (Malme-3M) | GI50 (T47D) | GI50 (SK-MEL-5) | GI50 (UO-31) | GI50 (MOLT-4) | GI50 (BT-549)
CC1(C)N=c2c(ncn2N)=C(C(N)=O)N1 | > 100 µM (inactive) | > 100 µM (inactive) | > 100 µM (inactive) | > 100 µM (inactive) | > 100 µM (inactive) | > 100 µM (inactive) | > 100 µM (inactive) | > 100 µM (inactive) | > 100 µM (inactive) | 22.3 µM (inactive) | > 100 µM (inactive) | > 100 µM (inactive) | > 100 µM (inactive) | > 100 µM (inactive) | > 100 µM (inactive) | > 100 µM (inactive) | > 100 µM (inactive) | – | – | –
CCNC(=O)NNc1ncnc2c1c(-c1ccc(Cl)cc1)cn2-c1ccc(C)cc1 | 17 µM (inactive) | 21.3 µM (inactive) | 18 µM (inactive) | 24.6 µM (inactive) | 25.4 µM (inactive) | 16 µM (inactive) | 19.8 µM (inactive) | 20.2 µM (inactive) | 16.7 µM (inactive) | 18.2 µM (inactive) | 18.6 µM (inactive) | 18.6 µM (inactive) | 14.9 µM (inactive) | 20.4 µM (inactive) | 18.8 µM (inactive) | 14.6 µM (inactive) | 14.7 µM (inactive) | 14.2 µM (inactive) | 16.4 µM (inactive) | –
O=C1C2=C(c3ccccc31)C(c1ccc(Cl)cc1)NC(S)=N2 (configuration not stated) | – | 41.8 µM (inactive) | 46.7 µM (inactive) | 17.3 µM (inactive) | 28.4 µM (inactive) | 17.5 µM (inactive) | – | 36.9 µM (inactive) | 15.9 µM (inactive) | 16 µM (inactive) | 17.9 µM (inactive) | 19 µM (inactive) | 15.1 µM (inactive) | 28.2 µM (inactive) | 28.2 µM (inactive) | – | 33.5 µM (inactive) | 14.9 µM (inactive) | 17.9 µM (inactive) | –
COc1ccc(-n2cnn3c(=O)c4cn[nH]c4nc23)cc1 | > 10 µM (inactive) | > 10 µM (inactive) | > 10 µM (inactive) | > 10 µM (inactive) | – | > 10 µM (inactive) | – | > 10 µM (inactive) | > 10 µM (inactive) | 0.748 µM (active) | > 10 µM (inactive) | > 10 µM (inactive) | > 10 µM (inactive) | – | > 10 µM (inactive) | – | > 10 µM (inactive) | > 10 µM (inactive) | > 10 µM (inactive) | > 10 µM (inactive)
O=C1/C(=C/c2ccccc2O)N=C(c2ccccc2)N1c1nc2ccccc2s1 | 3.1 µM (inactive) | 19.8 µM (inactive) | 51.4 µM (inactive) | 11.1 µM (inactive) | 32.7 µM (inactive) | 1.21 µM (inactive) | 2.51 µM (inactive) | 24.5 µM (inactive) | 21.4 µM (inactive) | 29.9 µM (inactive) | 14.5 µM (inactive) | 7.85 µM (inactive) | 14.3 µM (inactive) | 18.6 µM (inactive) | – | 21.1 µM (inactive) | 7.57 µM (inactive) | 36.6 µM (inactive) | 19.5 µM (inactive) | –
CCCCc1ccc(N2C(=O)c3cc(C)cnc3S2(=O)=O)cc1 | > 100 µM (inactive) | – | > 100 µM (inactive) | > 100 µM (inactive) | – | > 100 µM (inactive) | > 100 µM (inactive) | > 100 µM (inactive) | 59.2 µM (inactive) | > 100 µM (inactive) | > 100 µM (inactive) | > 100 µM (inactive) | > 100 µM (inactive) | 85.7 µM (inactive) | > 100 µM (inactive) | > 100 µM (inactive) | > 100 µM (inactive) | > 100 µM (inactive) | > 100 µM (inactive) | –
O=c1c2ccccc2n2c(-c3ccc(O)cc3)nnc2n1-c1ccccc1 | 18.5 µM (inactive) | 21.5 µM (inactive) | 96.6 µM (inactive) | 20.3 µM (inactive) | 29.6 µM (inactive) | 62.8 µM (inactive) | 15.7 µM (inactive) | 17 µM (inactive) | 18.7 µM (inactive) | 23.3 µM (inactive) | 17.9 µM (inactive) | 13.4 µM (inactive) | 20.9 µM (inactive) | 20.4 µM (inactive) | 21.5 µM (inactive) | 13.4 µM (inactive) | 18.5 µM (inactive) | 3.72 µM (inactive) | 36.1 µM (inactive) | –
CN(C)c1ccc(/N=C2/NC(=N\c3ccccc3)/C(=N/c3ccccc3)S2)cc1 | > 100 µM (inactive) | > 100 µM (inactive) | > 100 µM (inactive) | > 100 µM (inactive) | > 100 µM (inactive) | > 100 µM (inactive) | > 100 µM (inactive) | > 100 µM (inactive) | 27.2 µM (inactive) | > 100 µM (inactive) | 32 µM (inactive) | – | 85.3 µM (inactive) | 41.6 µM (inactive) | > 100 µM (inactive) | 53.1 µM (inactive) | > 100 µM (inactive) | – | 89.1 µM (inactive) | –
O=C1CCC2(c3ccc(F)cc3)Nc3ncncc3N12 (configuration not stated) | > 10 µM (inactive) | > 10 µM (inactive) | > 10 µM (inactive) | > 10 µM (inactive) | – | – | > 10 µM (inactive) | 9.93 µM (inactive) | > 10 µM (inactive) | > 10 µM (inactive) | > 10 µM (inactive) | > 10 µM (inactive) | – | – | > 10 µM (inactive) | – | – | > 10 µM (inactive) | > 10 µM (inactive) | > 10 µM (inactive)
N#C/N=C(/N)NCN/C(N)=N\C#N | – | > 100 µM (inactive) | > 100 µM (inactive) | > 100 µM (inactive) | > 100 µM (inactive) | > 100 µM (inactive) | – | > 100 µM (inactive) | > 100 µM (inactive) | > 100 µM (inactive) | 23.1 µM (inactive) | 43.7 µM (inactive) | > 100 µM (inactive) | > 100 µM (inactive) | > 100 µM (inactive) | – | > 100 µM (inactive) | > 100 µM (inactive) | > 100 µM (inactive) | –
CC1=C(C(=O)Nc2ccc([N+](=O)[O-])cc2)C(c2ccccc2F)C(C(=O)Nc2ccc([N+](=O)[O-])cc2)=C(C)N1 | – | 15 µM (inactive) | 35.1 µM (inactive) | 11.2 µM (inactive) | 18.2 µM (inactive) | 4.7 µM (inactive) | – | 8.81 µM (inactive) | 13.9 µM (inactive) | 4.45 µM (inactive) | 20.8 µM (inactive) | 6.61 µM (inactive) | 5.13 µM (inactive) | 15 µM (inactive) | 13.7 µM (inactive) | – | 13.9 µM (inactive) | 6.61 µM (inactive) | 3.61 µM (inactive) | –
O=C(c1ccccc1)n1cc(/C=C/[N+](=O)[O-])c2ccccc21 | – | 21.2 µM (inactive) | > 100 µM (inactive) | 20.1 µM (inactive) | 84.9 µM (inactive) | 3.24 µM (inactive) | – | > 100 µM (inactive) | 32.7 µM (inactive) | 23.8 µM (inactive) | 20.2 µM (inactive) | 19.7 µM (inactive) | 17.9 µM (inactive) | > 100 µM (inactive) | 32.2 µM (inactive) | – | 34.8 µM (inactive) | 20.1 µM (inactive) | 17.2 µM (inactive) | –
CCCCN1/C(=N/Nc2n[nH]c(=O)c3ccccc23)SCC1c1ccc(Cl)cc1 (configuration not stated) | 11 µM (inactive) | 12.2 µM (inactive) | 29.1 µM (inactive) | 1.64 µM (inactive) | 20.3 µM (inactive) | 14.9 µM (inactive) | – | 4.27 µM (inactive) | 18.6 µM (inactive) | 57.9 µM (inactive) | 20 µM (inactive) | 8.17 µM (inactive) | 13.9 µM (inactive) | 6.24 µM (inactive) | 22 µM (inactive) | 4.29 µM (inactive) | 3.55 µM (inactive) | 18.7 µM (inactive) | – | –
CC(=O)C1C(=O)C(=O)N(c2ccccc2C(C)C)C1=O (configuration not stated) | – | > 100 µM (inactive) | > 100 µM (inactive) | > 100 µM (inactive) | > 100 µM (inactive) | > 100 µM (inactive) | – | > 100 µM (inactive) | > 100 µM (inactive) | > 100 µM (inactive) | > 100 µM (inactive) | > 100 µM (inactive) | > 100 µM (inactive) | > 100 µM (inactive) | > 100 µM (inactive) | – | > 100 µM (inactive) | > 100 µM (inactive) | > 100 µM (inactive) | –
CCc1cc2c(cc1O)CC[C@@H]1[C@@H]2CC[C@]2(C)[C@@H](O)CC[C@@H]12 | 1.73 µM (inactive) | 8.02 µM (inactive) | 20.3 µM (inactive) | 7.14 µM (inactive) | 4.67 µM (inactive) | 3.02 µM (inactive) | 2.07 µM (inactive) | 9.71 µM (inactive) | 1.9 µM (inactive) | – | 5.21 µM (inactive) | 3.88 µM (inactive) | – | 6.14 µM (inactive) | 2.97 µM (inactive) | 7.48 µM (inactive) | 7.11 µM (inactive) | 9.08 µM (inactive) | 5 µM (inactive) | –
COc1ccc(O)cc1 [MEQUINOL] | – | > 100 µM (inactive) | 35.4 µM (inactive) | > 100 µM (inactive) | 94.4 µM (inactive) | 44.1 µM (inactive) | – | > 100 µM (inactive) | > 100 µM (inactive) | 44.1 µM (inactive) | 92 µM (inactive) | 68.1 µM (inactive) | > 100 µM (inactive) | 40.8 µM (inactive) | 77.6 µM (inactive) | – | 42.8 µM (inactive) | 57.4 µM (inactive) | 74.3 µM (inactive) | –
